Here are results for three compounds from patent US7279175B2, “Stent coated with a sustained-release drug delivery and method for use thereof” (Psivida Inc., priority 2001, dated 2007).

Series [1] is described as follows: In vitro release from stents coated with 1:1 mixture of TA and 5FU without chemical linkage. The conditions noted are these: mixture coating, 0.1M phosphate buffer pH 7.4, 37° C. Type of series: physicochemical. As to the method:
Stents were coated with a mixture of TA and 5FU in a mole-ratio of 1 to 1 without chemical linkage. The release rate was determined in vitro by placing the coated stents in 0.1M phosphate buffer (pH 7.4) at 37° C. Samples of the buffer solution were periodically removed for analysis by HPLC, and the buffer was replaced to avoid any saturation effects.
Because of the hydrophilic nature of 5FU, this compound was released from the mixture coating much faster than from the codrug coating. Within 4 weeks, more than 95% of total 5FU was released. TA release from the drug mixture coating was much slower, with about 20% TA released over the first 6 weeks.

Series [2] can be described thus: Release test from silicone-coated glass plates into phosphate buffer (HPLC). Particulars: silicone coating, up to day 6; detected plus hydrolyzed.
Excerpt: Samples were taken daily, and the entire release media was replaced with fresh media at each sampling time. […] Again, the data represent both intact and constituents of the inventive compound.
The nature of series [3]: Release test from PVA-coated glass plates into phosphate buffer (HPLC). It is filed as physicochemical. Particulars: 0.1 M phosphate buffer pH 7.4, 37° C., intact plus constituents.

In the case of `O=c1[nH]cc(F)c(=O)[nH]1` [5FU, 5-fluorouracil], in series [1] (within 4 weeks), the “total 5FU released” value is “more than 95%”.
As for `CC1(C)O[C@@H]2C[C@H]3[C@@H]4CCC5=CC(=O)C=C[C@]5(C)[C@@]4(F)[C@@H](O)C[C@]3(C)[C@]2(C(=O)CO)O1` [TA, triamcinolone acetonide], the TA released result in series [1] (over the first 6 weeks) is recorded as “about 20%”.
On to `COc1ccc2cc(C(C)C(=O)OCn3cc(F)c(=O)[nH]c3=O)ccc2c1` (stereo not shown) [TC-112], for which the “total TC-112 released” value in series [2] was determined as 122.4 mg. Further, the “release rate (slope of total cumulative release curve)” value in series [3] came out at 10 µg/day.
